Measured values taken from paper PMC9776291 (Biomolecules, 2022).

Assays:
Assay type in all cases: cell-based
GLUT6 = target: T1, GLUT6 (Homo sapiens, UniProt Q9UGQ3); experiment: [3H]-2-deoxyglucose uptake in GLUT-expressing HEK293 cells
T1 construct: gene SLC2A6
T1 sequence (Q9UGQ3 1-507): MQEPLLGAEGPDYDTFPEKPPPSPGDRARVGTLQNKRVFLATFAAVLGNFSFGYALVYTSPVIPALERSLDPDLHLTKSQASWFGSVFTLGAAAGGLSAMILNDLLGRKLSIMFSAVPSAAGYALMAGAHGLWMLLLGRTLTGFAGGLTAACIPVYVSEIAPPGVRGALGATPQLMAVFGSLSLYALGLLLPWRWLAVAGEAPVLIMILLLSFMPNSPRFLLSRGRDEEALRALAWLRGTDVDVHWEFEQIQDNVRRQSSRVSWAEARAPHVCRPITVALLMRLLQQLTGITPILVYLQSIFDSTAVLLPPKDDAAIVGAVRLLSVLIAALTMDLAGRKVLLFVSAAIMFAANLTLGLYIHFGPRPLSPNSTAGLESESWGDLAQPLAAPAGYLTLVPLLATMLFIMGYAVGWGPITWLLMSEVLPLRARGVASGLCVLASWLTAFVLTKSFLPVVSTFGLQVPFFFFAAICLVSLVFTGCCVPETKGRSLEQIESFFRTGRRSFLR

GLUT4 = target: T2, GLUT4 (Homo sapiens, UniProt P14672); experiment: as above
T2 construct: gene SLC2A4
T2 sequence (P14672 1-509): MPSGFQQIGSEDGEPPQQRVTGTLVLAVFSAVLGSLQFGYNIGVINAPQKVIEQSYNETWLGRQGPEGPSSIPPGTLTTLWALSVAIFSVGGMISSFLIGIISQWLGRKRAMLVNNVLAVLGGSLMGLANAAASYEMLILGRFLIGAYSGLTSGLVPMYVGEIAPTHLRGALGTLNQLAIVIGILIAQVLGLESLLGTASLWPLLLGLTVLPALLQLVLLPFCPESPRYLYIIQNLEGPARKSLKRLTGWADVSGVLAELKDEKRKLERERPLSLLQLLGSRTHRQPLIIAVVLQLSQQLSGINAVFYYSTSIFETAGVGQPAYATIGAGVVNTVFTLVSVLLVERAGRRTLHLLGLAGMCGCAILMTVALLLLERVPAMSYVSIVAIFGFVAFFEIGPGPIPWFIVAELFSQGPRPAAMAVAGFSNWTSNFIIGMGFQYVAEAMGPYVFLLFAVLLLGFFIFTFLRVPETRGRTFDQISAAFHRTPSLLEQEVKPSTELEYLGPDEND

GLUT10 = target: T3, GLUT10 (Homo sapiens, UniProt O95528); experiment: as above
T3 construct: gene SLC2A10
T3 sequence (O95528 1-541): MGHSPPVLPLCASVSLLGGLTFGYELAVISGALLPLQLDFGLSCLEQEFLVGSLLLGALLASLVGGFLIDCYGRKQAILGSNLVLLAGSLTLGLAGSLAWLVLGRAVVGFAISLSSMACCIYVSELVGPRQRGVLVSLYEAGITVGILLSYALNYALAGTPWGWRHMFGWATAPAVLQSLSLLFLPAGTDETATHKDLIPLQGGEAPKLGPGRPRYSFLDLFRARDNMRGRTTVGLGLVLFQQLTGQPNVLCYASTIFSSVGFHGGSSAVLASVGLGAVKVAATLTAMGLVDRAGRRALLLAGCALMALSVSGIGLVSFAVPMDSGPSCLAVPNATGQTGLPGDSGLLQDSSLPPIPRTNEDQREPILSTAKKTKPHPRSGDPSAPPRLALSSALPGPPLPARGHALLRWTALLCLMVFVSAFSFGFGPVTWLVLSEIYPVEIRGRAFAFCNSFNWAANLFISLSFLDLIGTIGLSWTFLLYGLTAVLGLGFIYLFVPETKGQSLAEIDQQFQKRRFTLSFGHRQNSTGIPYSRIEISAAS

GLUT2 = target: T4, GLUT2 (Homo sapiens, UniProt P11168); experiment: as above; details: 50 µM 2-deoxyglucose, 4 min; pH 7.3; labelled compound
T4 construct: gene SLC2A2
T4 sequence (P11168 1-524): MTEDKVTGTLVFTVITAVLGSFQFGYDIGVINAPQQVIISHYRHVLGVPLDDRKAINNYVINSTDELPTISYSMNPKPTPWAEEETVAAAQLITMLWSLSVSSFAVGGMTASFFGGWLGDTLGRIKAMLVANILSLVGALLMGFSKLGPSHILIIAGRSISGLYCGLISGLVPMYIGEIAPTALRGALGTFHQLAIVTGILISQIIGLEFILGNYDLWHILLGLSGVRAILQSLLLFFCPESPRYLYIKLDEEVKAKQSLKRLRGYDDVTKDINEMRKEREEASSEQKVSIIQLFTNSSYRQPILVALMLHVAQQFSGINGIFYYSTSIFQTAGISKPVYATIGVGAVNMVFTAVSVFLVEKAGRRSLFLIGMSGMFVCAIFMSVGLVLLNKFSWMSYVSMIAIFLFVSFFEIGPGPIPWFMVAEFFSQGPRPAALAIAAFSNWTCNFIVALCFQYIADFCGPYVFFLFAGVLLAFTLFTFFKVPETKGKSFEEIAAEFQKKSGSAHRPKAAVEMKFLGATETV

GLUT5 = target: T5, GLUT5 (Homo sapiens, UniProt P22732); experiment: [3H]-D-fructose uptake in GLUT-expressing HEK293 cells; details: 4 µM fructose, 2 min; pH 7.3; labelled compound
T5 construct: gene SLC2A5
T5 sequence (P22732 1-501): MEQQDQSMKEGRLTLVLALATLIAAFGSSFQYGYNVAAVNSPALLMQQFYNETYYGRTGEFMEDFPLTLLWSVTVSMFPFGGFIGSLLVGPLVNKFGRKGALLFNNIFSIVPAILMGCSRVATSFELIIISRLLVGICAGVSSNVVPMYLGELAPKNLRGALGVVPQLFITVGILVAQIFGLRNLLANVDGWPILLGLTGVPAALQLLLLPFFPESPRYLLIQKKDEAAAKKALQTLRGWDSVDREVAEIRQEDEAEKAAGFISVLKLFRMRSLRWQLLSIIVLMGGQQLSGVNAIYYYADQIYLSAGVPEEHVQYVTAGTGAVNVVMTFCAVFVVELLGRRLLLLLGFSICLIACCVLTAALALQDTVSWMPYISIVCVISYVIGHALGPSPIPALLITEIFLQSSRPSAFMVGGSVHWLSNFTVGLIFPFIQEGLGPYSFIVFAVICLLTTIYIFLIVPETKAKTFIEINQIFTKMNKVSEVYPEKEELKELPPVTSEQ

In the case of `Cc1c(NC(=O)c2cc(C(N)=O)nc3cc(F)ccc23)c(C(F)(F)F)nn1Cc1ccc(C#N)cc1` [BAY-876], the IC50 (GLUT6) is reported as 2200 nM, the IC50 (GLUT4) is reported as 5400 nM and the IC50 (GLUT10) is reported as 1700 nM.

With `OC[C@H]1OC(O)C[C@@H](O)[C@@H]1O` (some centres unmarked) [[^3H]-2-deoxyglucose] the “[3H]-2-deoxyglucose uptake in GLUT-expressing HEK293 cells” value (GLUT2) was “HEK293 cells that stably express human GLUT transporters were incubated”.

For `OCC1(O)OC[C@@H](O)[C@@H](O)[C@@H]1O` (stereo partly drawn) [[^3H]-D-fructose], the “[3H]-D-fructose uptake in GLUT-expressing HEK293 cells” value (GLUT5) was “Fructose transport through GLUT5 was not impaired by BAY-876”.
